Assay results published in US20080207722A1, “Glepp-1 Inhibitors in the Treatment of Autoimmune and/or Inflammatory Disorders” (LABORATORIES SERONO SA, priority 2005, published 2008).
Each block holds one molecule with its values, some of them ahead of it.

Assays:
[1] = target: T1, catalytic core of a human recombinant Glepp-1 (Homo sapiens, UniProt Q16827); experiment: Glepp-1 PTP enzyme assay (DiFMUP dephosphorylation); assay type: biochemical; settings: Glepp-1, DiFMUP substrate, 30 minutes at room temperature; read-out: Inhibition (IC50)
T1 construct: using the catalytic core of a human recombinant Glepp-1 as the enzyme; made in house
T1 sequence (Q16827 938-1195 limits assumed): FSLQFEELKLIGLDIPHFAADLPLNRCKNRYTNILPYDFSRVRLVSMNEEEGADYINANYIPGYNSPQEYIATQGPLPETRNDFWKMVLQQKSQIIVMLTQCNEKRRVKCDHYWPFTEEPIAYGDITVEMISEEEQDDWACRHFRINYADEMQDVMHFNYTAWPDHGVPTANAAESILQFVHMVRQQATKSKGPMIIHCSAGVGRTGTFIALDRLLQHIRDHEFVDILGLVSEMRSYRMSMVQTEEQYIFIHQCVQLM
Description: The PTP Enzyme Assay aims at determining the extent of inhibition of Glepp-1 in the presence of a test compound. The inhibition is illustrated by IC50 values which denote the concentration of test compound necessary to achieve an inhibition of 50% of Glepp-1 using the following concentration of the Glepp-1 substrate DiFMUP:
The DiFMUP assay allows to follow the dephosphorylation of DiFMUP (6,8-DiFluoro-4-MethylUmbelliferyl Phosphate)—which is the Glepp-1 substrate—mediated by Glepp-1 into its stable hydrolysis product, i.e. DiFMU (6,8-difluoro-7-hydroxy coumarin). Due to its rather low pKa and its high quantum yield, DiFMU allows to measure both acidic and alkaline phosphatase activities with a great sensitivity.
Assays were performed in a 96 well plate format, using the catalytic core of a human recombinant Glepp-1 as the enzyme and 6,8-DiFluoro-4-MethylUmbelliferyl Phosphate (DiFMUP, Molecular Probes, D-6567) as a substrate. Compounds to be tested were dissolved in 100% DMSO at a concentration of 2 mM. Subsequent dilutions of the test compounds (to yield a concentration of 100, 30, 10, 3, 1, 0.3, 0.1, 0.03, 0.01, 0.001 μM) were performed in 60% DMSO manually. 8 μl of diluted compound or vehicle (60% DMSO=control) was distributed to a black Costar 96 well plate. 42 μl of human recombinant Glepp-1 enzyme diluted in assay buffer (20 mM Tris HCl pH 7.5, 0.01% IGEPAL CA-630, 0.1 mM ethylenediaminetetracetic acid, 1 mM DL-Dithiothreitol) can be added to the dilutions of compound or vehicle (distributed to a black Costar 96 well plate), followed by 50 μl of DiFMUP diluted in the assay buffer. The reaction ran for 30 minutes at room temperature before reading the fluorescence intensity (integral or intensity) on a Perkin-Elmer Victor 2 spectrofluorimeter (excitation of 6,8-difluoro-7-hydroxy coumarin is at 355 nm, the emission at 460 nm, for 0.1 s). The percentage of inhibition is determined by measuring the relative fluorescence ion absence of a test compound (PTP inhibitor), i.e. with the solvent alone (5% DMSO). The IC50 values for inhibition were determined in triplicates.

THP-1 cells = experiment: In vitro chemotaxis, MCP-1-induced, THP1 cells (transwell); assay type: cell-based; settings: Homo sapiens, MCP-1/CCL2 in lower chamber, 3 hours, read-out: block chemotaxis, EC50
Description: The compounds of Formula (I), (II), (III), (IV), (V), (VI) and (VII), may be subjected to the following assays: • (1) Glepp-1 binding assay (in vitro) • (2) In vitro assay(s): Cell functional effect. Effect on MCP-1-induced chemotaxis on THP-1 cells • (3) Lymphocyte recruitment by thioglycollate (in vivo model for inflammation) • (4) Collagen induced arthritis (CIA) in mice (in vivo model for inflammation) • (5) Contact hypersensitivity (CHS is a T cell-mediated model of skin inflammation) • (6) EAE (in vivo model for MS) • (7) Ulcerative colitis
The assay was performed as follows: After starvation of THP1 cells in serum free medium for 3 hours, 10^7 cells/ml in medium containing 0.5% BSA, and inhibitors, when indicated. 100 μl of cells were applied to the top chamber (5 μm pore size transwell plates, COSTAR, New York) and 6001 of medium containing MCP-1/CCL2, in the absence or presence of test compounds, were added to the lower chamber. After incubation at 37° C. and 5% of CO2 for 3 hours, cells that passed through the membrane were collected and counted in a Beckman Coulter® AcT 5Diff™.

Balb/c mice = experiment: Dextran Sodium Sulfate-induced ulcerative colitis in mice; assay type: in vivo; settings: for body weight loss: po
Method: Ulcerative colitis (UC) was induced in female mice (Balb/c, 20-22 g, Elevage Janvier) by Dextran Sodium Sulfate (DSS 4%) administered in drinking water. The mice had free access to DSS during 7 days. Body weight was determined daily. The severity of the UC was assessed by a clinical score (range 0 to 4) estimating the constituency of the stool (0=firm, 1=loose, 2=diarrhea) and the presence of blood (0=no blood, 1=occult blood, 2=gross rectal bleeding). Seven days after the induction of the disease, the animals were sacrificed. The length and the weight of the colon were determined and the ratio Weight/Length/100 g body weight was calculated. The spleen weight was also determined.
Compound of the invention (10, 30 & 100 mg/kg, po) was suspended in 0.5% methocel/0.25% tween 20 and was administered twice daily at days 3, 4, 5 and 6 after the induction of the UC. Sulfasalazine (200 mg/kg, po) was used as reference compound.

[2] = 10 mg/kg po twice daily days 3-6, versus vehicle treated group
[3] = 30 mg/kg po twice daily days 3-6, versus vehicle treated group
[4] = 100 mg/kg po twice daily days 3-6, versus vehicle treated group

SMILES: CCCCCCN(Cc1ccc(C#Cc2ccc(CCCC)cc2)cc1)c1ccc(O)c(C(=O)O)c1 [5-[{4-[(4-butylphenyl)ethynyl]benzyl}(hexyl)amino]-2-hydroxybenzoic acid]
IC50 [1]: < 1 µM | EC50 (THP-1 cells): 1 to 15 µM | colon reduction, estimated by the Weight/Length ratio (Balb/c mice; [2]): −22% | colon reduction, estimated by the Weight/Length ratio (Balb/c mice; [3]): −28% | splenomegaly reduced (Balb/c mice; [3]): −31% | colon reduction, estimated by the Weight/Length ratio (Balb/c mice; [4]): −35% | splenomegaly reduced (Balb/c mice; [4]): −65% | body weight loss (Balb/c mice; 10, 30 & 100 mg/kg): prevented

IC50 [1]: < 1 µM
SMILES: CCCCCCCCNC(=O)c1ccc(-c2nc(CN(Cc3ccc(OCC(=O)O)cc3)C(=O)CCc3ccccc3)cs2)cc1 [(4-{[[(2-{4-[(octylamino)carbonyl]phenyl}-1,3-thiazol-4-yl)methyl](3-phenylpropanoyl)amino]methyl}phenoxy)acetic acid]

SMILES: CCCCCCN(Cc1ccccc1C#Cc1ccc(CCCC)cc1)C(=O)c1ccc(O)c(C(=O)O)c1 [5-{[{2-[(4-butylphenyl)ethynyl]benzyl}(hexyl)amino]carbonyl}-2-hydroxybenzoic acid]
colon reduction, estimated by the Weight/Length ratio (Balb/c mice; [2]): −47% | splenomegaly reduced (Balb/c mice; [2]): −25% | colon reduction, estimated by the Weight/Length ratio (Balb/c mice; [3]): −50% | splenomegaly reduced (Balb/c mice; [3]): −45% | body weight loss (Balb/c mice; 10 & 30 mg/kg): prevented

IC50 [1]: < 1 µM
SMILES: O=C1NN(c2ccc(I)cc2)C(=O)/C1=C/c1ccc(Br)o1 [(4E)-4-[(5-bromo-2-furyl)methylene]-1-(4-iodophenyl)pyrazolidine-3,5-dione]

IC50 [1]: < 1 µM | EC50 (THP-1 cells): 1 to 15 µM
SMILES: CCCCCCc1ccc(C#Cc2ccc(CN(Cc3ccc(C(F)(F)F)cc3)C(=O)C(=O)O)cc2)cc1 [{{4-[(4-hexylphenyl)ethynyl]benzyl}[4-(trifluoromethyl)benzyl]amino}-(oxo)acetic acid]

IC50 [1]: < 1 µM
SMILES: N#Cc1ccc(C(=O)Nc2ccc(C(=O)N/N=C3\C(=O)Nc4ccc(I)cc43)cc2)cc1 [4-cyano-N-(4-{[(2Z)-2-(5-iodo-2-oxo-1,2-dihydro-3H-indol-3-ylidene)hydrazino]carbonyl}phenyl)benzamide]

IC50 [1]: < 1 µM
SMILES: CCCCCCCCC#Cc1ccc(CN(C(=O)/C=C/c2cccc(C(F)(F)F)c2)c2ccc(O)c(C(=O)O)c2)cc1 [5-((4-dec-1-ynylbenzyl){(2E)-3-[3-(trifluoromethyl)phenyl]prop-2-enoyl}amino)-2-hydroxybenzoic acid]

SMILES: CCCCCCN(Cc1ccc(C#Cc2ccc(CCCC)cc2)cc1)C(=O)c1ccc(O)c(C(=O)O)c1 [5-{[{4-[(4-butylphenyl)ethynyl]benzyl}(hexyl)amino]carbonyl}-2-hydroxybenzoic acid]
IC50 [1]: < 1 µM | EC50 (THP-1 cells): 1 to 15 µM
